From PubChem BioAssay (NCI)
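Values below derive from 48-hour exposures of cells grown in 96-well plates, with endpoints linearly interpolated between the two concentrations bracketing the appropriate inhibition level. TGI: concentration producing complete growth inhibition.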

Legend:
Assay in all cases: NCI tumour cell line growth inhibition, 48 h
PC-3 prostate = test system: PC-3 prostate
SK-MEL-28 melanoma = test system: SK-MEL-28 melanoma
HS 578T breast = test system: HS 578T breast
SF-295 CNS = test system: SF-295 CNS
NCI-H522 lung = test system: NCI-H522 lung
KM12 colon = test system: KM12 colon
UO-31 renal = test system: UO-31 renal
MDA-MB-231 breast = test system: MDA-MB-231 breast
NCI-H226 lung = test system: NCI-H226 lung
U251 CNS = test system: U251 CNS
SW-620 colon = test system: SW-620 colon
NCI-H460 lung = test system: NCI-H460 lung
CAKI-1 renal = test system: CAKI-1 renal
COLO 205 colon = test system: COLO 205 colon
NCI-H23 lung = test system: NCI-H23 lung
LOX IMVI melanoma = test system: LOX IMVI melanoma
T-47D breast = test system: T-47D breast
OVCAR-4 ovarian = test system: OVCAR-4 ovarian
SNB-75 CNS = test system: SNB-75 CNS
RXF 393 renal = test system: RXF 393 renal

Row | SMILES | TGI (PC-3 prostate) [µM] | TGI (SK-MEL-28 melanoma) [µM] | TGI (HS 578T breast) [µM] | TGI (SF-295 CNS) [µM] | TGI (NCI-H522 lung) [µM] | TGI (KM12 colon) [µM] | TGI (UO-31 renal) [µM] | TGI (MDA-MB-231 breast) [µM] | TGI (NCI-H226 lung) [µM] | TGI (U251 CNS) [µM] | TGI (SW-620 colon) [µM] | TGI (NCI-H460 lung) [µM] | TGI (CAKI-1 renal) [µM] | TGI (COLO 205 colon) [µM] | TGI (NCI-H23 lung) [µM] | TGI (LOX IMVI melanoma) [µM] | TGI (T-47D breast) [µM] | TGI (OVCAR-4 ovarian) [µM] | TGI (SNB-75 CNS) [µM] | TGI (RXF 393 renal) [µM]
1 | c1ccc(C(=NNc2nc3ccccc3[nH]2)c2ccccn2)nc1 | 5.43 | > 100 | > 100 | 35.4 | 0.089 | > 80.3 | 1.78 | > 53.6 | 0.448 | > 69 | > 100 | > 100 | 2.07 | 16.1 | > 100 | 27.8 | > 100 | > 100 |  | 
2 | COc1ccc(N2CCN(c3ccc4c(c3)NCC(=O)N4)CC2)cc1 | > 100 | > 100 | 67.1 | > 100 | 30.8 | 49 | 70.4 | > 100 | > 100 | 68.6 | > 100 | > 100 | > 100 | > 100 | > 100 | > 100 | 33.4 | 77.3 | 93.8 | 
3 | C1OCN2c3nonc3N3COCN4c5nonc5N1C2C43 (centres undefined) | > 100 | > 100 | > 100 | > 100 | > 100 | > 100 | > 100 | > 100 | > 100 | > 100 | > 100 | > 100 | > 100 | > 100 | > 100 |  | > 100 | > 100 | > 100 | > 100
4 | O=C1C=CC2(O[C@@H](Cc3ccccc3)[C@H](Cc3ccccc3)O2)C(SC(=O)c2ccccc2)C1 (some centres undefined) | 3.69 | 3.44 | 4.57 | 4.28 |  | 6.82 | 1.87 | 6.39 | 3.2 | 2.56 | 0.858 | 9.56 | 3.71 | 3.14 | 4.67 | 1.46 | 11.3 | 4.4 | 3.41 | 0.325
5 | COc1ccc(N2C(=O)C3c4[nH]c5ccccc5c4C4CCC(C(C)C)CC4C3C2=O)cc1 (centres undefined) | > 100 | > 100 | > 100 | > 100 | > 100 | > 100 | > 100 | > 100 | > 100 | > 100 | > 100 | > 100 | > 100 | > 100 | > 100 | > 100 | > 100 | > 100 | > 100 | 
6 | Cc1cc(S(=O)(=O)O)ccc1N=Nc1ccc(N=Nc2c(O)ccc3ccccc23)c(C)c1 | > 100 | > 100 | > 100 | > 100 | 68.5 | 83.3 | > 100 | > 100 | > 100 | > 100 | > 100 |  | > 100 | > 100 | > 100 | > 100 | > 100 | > 100 | > 100 | > 100
7 | CCOC(OCC)C(CCc1ccccc1)c1c(N)nc(N)[nH]c1=O (centres undefined) | > 100 | > 100 | > 100 | > 100 |  | > 100 | > 100 | > 100 | > 100 | > 100 | > 100 | > 100 | > 100 | 49.3 | > 100 | > 100 | > 100 | > 100 | > 100 | > 100
8 | COC(=O)C[C@H](COCc1ccccc1)NC(=O)C[C@H](COCc1ccccc1)NC(=O)C[C@H](COCc1ccccc1)NC(=O)OC(C)(C)C | 41.2 | > 100 | > 100 | > 100 | > 100 | > 100 | > 100 | > 100 | > 100 | > 100 | > 100 |  | > 100 | > 100 | > 100 | > 100 | > 100 | 17.4 | 38 | 72
9 | CCCCCCC(CCl)c1sc(-c2csc(CCNC(=O)OC(C)(C)C)n2)nc1C(=O)OC (centres undefined) | 63.8 | > 100 | 65.9 | > 100 | > 100 | 80.5 | 67.8 | > 100 |  | 38 | > 100 | 46.8 | > 100 | > 100 | > 100 | 25.9 | 13 | 78 |  | 
10 | C=C(C)CC1=C(C(=S)NCCO[Si](C)(C)C(C)(C)C)C(OCC)(OCC)C1=O | 29.4 | 34.6 | > 100 | 33.1 | 29 | 45.9 | 35.9 | 67.5 |  | 63 | 47 |  | 31.9 | 75 | 40.5 | 56.9 | 35.4 | 34.3 | 36.8 | 31.5
11 | Cc1cccc2c(N)c3cccc(C(=O)NCC[N+](C)(C)Cc4sc(N5CCOCC5)nc4[N+](=O)[O-])c3nc12 | 16.8 | > 100 | 28.5 | 14.3 | 4.54 | 17.6 | 35.7 | 13.1 | 17.4 | > 100 | > 100 |  | 4.64 | > 100 | 15.3 | 3.78 | > 100 | 14.4 | 22.7 | 20.8
12 | O=C(Nc1ccc2ccccc2c1)Nn1cnnc1 | > 100 | > 100 | > 100 | > 100 | > 100 | > 100 | > 100 | > 100 | > 100 | > 100 | > 100 | > 100 | > 100 | > 100 | > 100 | > 100 | > 100 | > 100 | > 100 | 
